This passage reports EC50 and IC50 results from patent US11566007B2, “Ras inhibitors” (Revolution Medicines, Inc., priority 2019, dated 2023).

A value given as a limit tells only on which side of the number the result lay.

In experiment [1] the test system is NCI-H358 cells (K-Ras G12C). Nature of the experiment: Potency assay: pERK in NCI-H358 cells. The format is cell-based, human. The settings on record: Homo sapiens, NCI-H358; H358 KRAS G12C; read-out: pERK EC50. The method, boiled down: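 Inhibition of cellular pERK after a 4 h treatment, detected by AlphaLISA or In-Cell Western. IC50 from a four-parameter concentration-response fit.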

The next experiment concerns the target K-Ras G12C (Homo sapiens (Human), UniProt P01116+P62937, G12C). The experiment in a line: Ras-Raf (BRAF RBD) disruption / FRET / MOA assay, KRAS G12C. The format is biochemical. The settings on record: KRAS G12C; Ras-Raf disruption/FRET/MOA assay; read-out: IC50* KRAS G12C FRET data. A digest of the protocol: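 Compounds, top final concentration 30 μM in 10-point 3-fold series, incubated 3 hours at 25° C with nucleotide-loaded Ras, cyclophilin A and BRAF RBD.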

K-Ras G12C, sequence (P01116-2 other isoform, or with tags, fused parts or gaps G12C): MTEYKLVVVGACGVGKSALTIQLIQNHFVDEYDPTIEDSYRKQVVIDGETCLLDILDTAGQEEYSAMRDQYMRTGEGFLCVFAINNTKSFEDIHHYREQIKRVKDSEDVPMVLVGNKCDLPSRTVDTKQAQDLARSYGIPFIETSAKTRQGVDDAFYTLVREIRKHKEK
K-Ras G12C, sequence (P62937 whole entry): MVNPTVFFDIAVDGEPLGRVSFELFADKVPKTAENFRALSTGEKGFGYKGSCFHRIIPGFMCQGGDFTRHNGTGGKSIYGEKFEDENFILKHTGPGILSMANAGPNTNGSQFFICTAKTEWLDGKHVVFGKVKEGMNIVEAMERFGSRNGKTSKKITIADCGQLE

Turning to `CO[C@@H](C)c1ncccc1-c1c2c3cc(ccc3n1CC(F)(F)F)-c1cccc(c1)C[C@H](NC(=O)[C@@H](COC1CN(C(=O)C#CC(C)(C)N(C)C)C1)C(C)C)C(=O)N1CCC[C@H](N1)C(=O)OCC(C)(C)C2` (atropisomer, axis not shown) [Example A376], in experiment [1], the concentration for a half-maximal effect (EC50) was below 5000 nM. Besides, the IC50 on K-Ras G12C is below 10 nM.
Regarding `CCn1c(-c2cccnc2[C@H](C)OC)c2c3cc(ccc31)-c1csc(n1)C[C@H](NC(=O)C[C@H](C)OC1CN(C(=O)C#CC(C)(C)N(C)C)C1)C(=O)N1CCC[C@H](N1)C(=O)OCC(C)(C)C2` (atropisomer, axis not shown) [Example A637], the EC50 in experiment [1] was below 5000 nM. In addition, the IC50 at K-Ras G12C was in the range of 10 to 100 nM.
The matching figures for `C=CC(=O)N1CC[C@H](C(=O)N2CC[C@H](C)[C@H]2C(=O)N[C@H]2Cc3cccc(c3)-c3ccc4c(c3)c(c(-c3cccnc3[C@H](C)OC)n4CC)CC(C)(C)COC(=O)[C@@H]3CCCN(N3)C2=O)C1` (atropisomer, axis not shown) [Example A494]: below 5000 nM and 100 to 1000 nM.
For `C=CC(=O)N1CC[C@H](C(=O)N(C)[C@H](C(=O)N[C@H]2CC3=NN=C(O3)c3ccc4c(c3)c(c(-c3cccnc3[C@H](C)OC)n4CC)CC(C)(C)COC(=O)[C@@H]3CCCN(N3)C2=O)C(C)C)C1` (atropisomer, axis not shown) [Example A447], in experiment [1], the EC50 was below 5000 nM. The IC50 on K-Ras G12C lay within 100 to 1000 nM.
On to `CO[C@@H](C)c1ncccc1-c1c2c3cc(ccc3n1CC(F)(F)F)-c1csc(n1)C[C@H](NC(=O)[C@@H](COC1CN(C(=O)C#CC(C)(C)N(C)C)C1)C(C)C)C(=O)N1CCC[C@H](N1)C(=O)OCC(C)(C)C2` (atropisomer, axis not shown) [Example A343], for which the EC50 in experiment [1] was below 5000 nM. For the same molecule, the IC50 at K-Ras G12C is below 10 nM.
As to `C=CC(=O)N1CC[C@H](C(=O)N(C)[C@H](C(=O)N[C@H]2Cc3cc(cc(C(F)F)c3)-c3ccc4c(c3)c(c(-c3cc(N5CCN(C)CC5)cnc3[C@H](C)OC)n4CC(F)(F)F)CC(C)(C)COC(=O)[C@@H]3CCCN(N3)C2=O)C(C)C)C1` (atropisomer, axis not shown) [Example A357], in experiment [1], the EC50 is below 5000 nM. In addition, on K-Ras G12C, the IC50 fell in the range of 100 to 1000 nM.
In the case of `CO[C@@H](C)c1ncccc1-c1c2c3cc(ccc3n1CC(F)(F)F)-c1nc(co1)C[C@H](NC(=O)[C@H](C(C)C)N(C)C(=O)C1(F)CCN(C(=O)C#CC(C)(C)N(C)C)CC1)C(=O)N1CCC[C@H](N1)C(=O)OCC(C)(C)C2` (atropisomer, axis not shown) [Example A578], the EC50 in experiment [1] is below 5000 nM. In addition, the IC50 on K-Ras G12C was below 10 nM.
As for `CCn1c(-c2cccnc2[C@H](C)OC)c2c3cc(ccc31)-c1cc(CF)cc(c1)C[C@H](NC(=O)[C@H](C(C)C)N1CC[C@]3(CCN(C(=O)C#CC(C)(C)N(C)C)C3)C1=O)C(=O)N1CCC[C@H](N1)C(=O)OCC(C)(C)C2` (atropisomer, axis not shown) [Example A673], the EC50 in experiment [1] is below 5000 nM. Besides, on K-Ras G12C, the IC50 is below 10 nM.
The like results for `C=CC(=O)N1C[C@H](C)N(C(=O)N(C)[C@H](C(=O)N[C@H]2Cc3nc(cs3)-c3ccc4c(c3)c(c(-c3cccnc3[C@H](C)OC)n4CC)CC(C)(C)COC(=O)[C@@H]3CCCN(N3)C2=O)C(C)C)C[C@@H]1C` (atropisomer, axis not shown) [Example A385] were, in that order, below 5000 nM and 10 to 100 nM.
As to `C=CC(=O)N1CCOC2(CCN(C(=O)N(C)[C@H](C(=O)N[C@H]3Cc4nc(n(C)n4)-c4ccc5c(c4)c(c(-c4cccnc4[C@H](C)OC)n5CC(F)(F)F)CC(C)(C)COC(=O)[C@@H]4CCCN(N4)C3=O)C(C)C)CC2)C1` (atropisomer, axis not shown) [Example A606], the 50% effective concentration (EC50) in experiment [1] was below 5000 nM. The IC50 at K-Ras G12C is 100 to 1000 nM.
On to `C=CC(=O)Nc1ncc(C(=O)N(C)[C@H](C(=O)N[C@H]2Cc3cccc(c3)-c3ccc4c(c3)c(c(-c3cccnc3[C@H](C)OC)n4CC)CC(C)(C)COC(=O)[C@@H]3CCCN(N3)C2=O)C(C)C)n1C` (atropisomer, axis not shown) [Example A474], for which the EC50 in experiment [1] was below 5000 nM. Moreover, the IC50 at K-Ras G12C is below 10 nM.
On to `CCn1c(-c2cccnc2[C@H](C)OC)c2c3cc(ccc31)-c1cccc(c1)C[C@H](NC(=O)[C@@H](CO[C@H]1CCN(C(=O)C#CC(C)(C)N(C)C)C1)C(C)C)C(=O)N1CCC[C@H](N1)C(=O)OCC(C)(C)C2` (atropisomer, axis not shown) [Example A585], for which the EC50 in experiment [1] is below 5000 nM. For the same molecule, the IC50 on K-Ras G12C is 10 to 100 nM.
In the case of `CO[C@@H](C)c1ncccc1-c1c2c3cc(ccc3n1CC(F)(F)F)N1CCO[C@@H](C[C@H](NC(=O)[C@H](C(C)C)N3CC[C@]4(CCN(C(=O)C#CC(C)(C)N(C)C)C4)C3=O)C(=O)N3CCC[C@H](N3)C(=O)OCC(C)(C)C2)C1` (atropisomer, axis not shown) [Example A642], the concentration for a half-maximal effect (EC50) in experiment [1] is below 5000 nM. Besides, the IC50 on K-Ras G12C is below 10 nM.
In the case of `C=CC(=O)N1CC2(C1)OCCN2C(=O)N(C)[C@H](C(=O)N[C@H]1Cc2nc(cs2)-c2ccc3c(c2)c(c(-c2cccnc2[C@H](C)OC)n3CC)CC(C)(C)COC(=O)[C@@H]2CCCN(N2)C1=O)C(C)C` (atropisomer, axis not shown) [Example A620], the EC50 in experiment [1] is below 5000 nM. Further, on K-Ras G12C, the IC50 was below 10 nM.
As to `CCn1c(-c2cccnc2[C@H](C)OC)c2c3cc(ccc31)C1=CCCN(C1)C[C@H](NC(=O)[C@H](C(C)C)N(C)C(=O)C1(F)CCN(C(=O)C#CC(C)(C)N(C)C)CC1)C(=O)N1CCC[C@H](N1)C(=O)OCC(C)(C)C2` (atropisomer, axis not shown) [Example A591], in experiment [1], the EC50 was below 5000 nM. Also, the IC50 on K-Ras G12C was below 10 nM.
For the molecule `C=CS(=O)(=O)N1CCC2(CCN([C@H](C(=O)N[C@H]3Cc4cc(O)cc(c4)-c4ccc5c(c4)c(c(-c4cccnc4[C@H](C)OC)n5CC)CC(C)(C)COC(=O)[C@@H]4CCCN(N4)C3=O)C(C)C)C2=O)CC1` (atropisomer, axis not shown) [Example A299], in experiment [1], the EC50 is below 5000 nM. Besides, the IC50 at K-Ras G12C is below 10 nM.
In the case of `C=CC(=O)N1CCO[C@H]2CN(C(=O)N(C)[C@H](C(=O)N[C@H]3CC4=NN=C(O4)c4ccc5c(c4)c(c(-c4cccnc4[C@H](C)OC)n5CC(F)(F)F)CC(C)(C)COC(=O)[C@@H]4CCCN(N4)C3=O)C(C)C)C[C@H]21` (atropisomer, axis not shown) [Example A576], the EC50 in experiment [1] is below 5000 nM. For the same molecule, the IC50 at K-Ras G12C lay in the range of 100 to 1000 nM.
Consider `CCn1c(-c2cccnc2[C@H](C)OC)c2c3cc(ccc31)-c1cccc(c1)C[C@H](NC(=O)[C@H](C(C)C)N1CC[C@]3(CCN(C(=O)C#C[C@@]4(N(C)C)CCOC4)C3)C1=O)C(=O)N1CCC[C@H](N1)C(=O)OCC(C)(C)C2` (atropisomer, axis not shown) [Example A560], for which, in experiment [1], the EC50 was below 5000 nM. Besides, the IC50 on K-Ras G12C lay within 10 to 100 nM.
The like results for `CCn1c(-c2cccnc2[C@H](C)OC)c2c3cc(ccc31)-c1csc(n1)C[C@H](NC(=O)[C@@H](COC1CN(C(=O)C#CC(C)(C)N(C)C)C1)C(C)C)C(=O)N1CCC[C@H](N1)C(=O)OCC(C)(C)C2` (atropisomer, axis not shown) [Example A721] were, in that order, below 5000 nM and below 10 nM.
Consider `CCn1c(-c2cccnc2[C@H](C)OC)c2c3cc(ccc31)-c1cc(F)cc(c1)C[C@H](NC(=O)[C@@H](COC1CN(C(=O)C#CC(C)(C)N(C)C)C1)C(C)C)C(=O)N1CCC[C@H](N1)C(=O)OCC(C)(C)C2` (atropisomer, axis not shown) [Example A403], for which the EC50 in experiment [1] was below 5000 nM. In addition, the IC50 at K-Ras G12C is below 10 nM.
As for `CCn1c(-c2cccnc2[C@H](C)OC)c2c3cc(ccc31)-c1csc(n1)C[C@H](NC(=O)[C@H](C(C)C)N(C)C(=O)N(C)C1CN(C(=O)/C=C/C3CN(C)C3)C1)C(=O)N1CCC[C@H](N1)C(=O)OCC(C)(C)C2` (atropisomer, axis not shown) [Example A690], the EC50 in experiment [1] is below 5000 nM. The IC50 on K-Ras G12C lay within 100 to 1000 nM.
The matching figures for `C=CC(=O)N1CC2(CCCN2C(=O)N(C)[C@H](C(=O)N[C@H]2Cc3nc(cs3)-c3ccc4c(c3)c(c(-c3cccnc3[C@H](C)OC)n4CC)CC(C)(C)COC(=O)[C@@H]3CCCN(N3)C2=O)C(C)C)C1` (atropisomer, axis not shown) [Example A667]: below 5000 nM and below 10 nM.
`C=CC(=O)N1CC[C@H](C(=O)N(C)[C@H](C(=O)N[C@H]2CC3=NC=C(O3)c3ccc4c(c3)c(c(-c3cccnc3[C@H](C)OC)n4CC)CC(C)(C)COC(=O)[C@@H]3CCCN(N3)C2=O)C(C)C)C1` (atropisomer, axis not shown) [Example A278]: in experiment [1], the EC50 was below 5000 nM. In addition, on K-Ras G12C, the IC50 is 100 to 1000 nM.
For `C=CC(=O)N1CC[C@H](C(=O)N2CCCCC[C@H]2C(=O)N[C@H]2Cc3cccc(c3)-c3ccc4c(c3)c(c(-c3cccnc3[C@H](C)OC)n4CC)CC(C)(C)COC(=O)[C@@H]3CCCN(N3)C2=O)C1` (atropisomer, axis not shown) [Example A496], in experiment [1], the EC50 was below 5000 nM. Moreover, on K-Ras G12C, the IC50 lay in the range of 1000 to 10000 nM.
The like results for `C=CC(=O)N1CCC12CN(C(=O)N(C)[C@H](C(=O)N[C@H]1Cc3nc(cs3)-c3ccc4c(c3)c(c(-c3cccnc3[C@H](C)OC)n4CC)CC(C)(C)COC(=O)[C@@H]3CCCN(N3)C1=O)C(C)C)C2` (atropisomer, axis not shown) [Example A393] were, in that order, below 5000 nM and 100 to 1000 nM.
The like results for `CCn1c(-c2cccnc2[C@H](C)OC)c2c3cc(ccc31)-c1cccc(c1)C[C@H](NC(=O)[C@H](C(C)C)N(C)C(=O)[C@H]1CCN(C(=O)C#CC(C)(C)N(C)C)C1)C(=O)N1CCC[C@H](N1)C(=O)OCC(C)(C)C2` (atropisomer, axis not shown) [Example A290] were, in that order, below 5000 nM and below 10 nM.

By EC50 is commonly meant the midpoint of the concentration-response curve. Usually IC50 stands for the midpoint of a concentration-inhibition curve.
